Measurements from publication PMC10135569, “Does Enhanced Structural Maturity of hiPSC-Cardiomyocytes Better for the Detection of Drug-Induced Cardiotoxicity?” (Biomolecules, 2023).

Assays:
[1] = listed in Supplementary Table S1; no reference given; cited from earlier work
[2] = test system: hiPSC-CMs (iCell2 Cardiomyocytes) 2D monolayers; test: Contractility measurements using video imaging (ContractilityTool / MUSCLEMOTION); format: cell-based, human; settings: for activity at 0.1 µM / activity at 0.3 µM / activity at 1 µM / activity at 3 µM: Homo sapiens, Cardiomyocyte, 0.5 h, 30 min, delta over DMSO 0.1%; for increasing the amplitude of contraction (positive inotropy): both experimental groups
Procedure, shortened: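 Monolayers on fibronectin or Matrix Plus coating, tested on days 5–6 in serum-free medium. Four concentrations, one per well, n = 8, with vehicle control.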

[3] = test system: hiPSC-CMs (iCell2 Cardiomyocytes) 2D monolayers; test: Membrane potential (action potential) recordings with FluoVolt voltage-sensitive dye on the CellOPTIQ platform; format: cell-based, human; settings: for activity at 0.1 µM / activity at 0.3 µM / activity at 1 µM / activity at 3 µM: Homo sapiens, Cardiomyocyte, 0.5 h, 30 min, delta over DMSO 0.1%
Procedure, shortened: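 iCell2 hiPSC-CM monolayers (50,000 cells/well on fibronectin or Matrix Plus, days 5–6) were loaded with FluoVolt (1:1000, 20 min, 37 °C) and imaged at 37 °C with 470 nm excitation and 510–560 nm emission sampled at 10 kHz. Spontaneous action potentials were recorded for 10 s at baseline and 30 min after drug, with one of four concentrations per well (n = 8).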

[4] = 0.01–1 uM, two 2D monolayer models
[5] = FM monolayer, read-out: CtAmp (%DD)
[6] = FM monolayer, read-out: CtD50 (%DD)
[7] = MM monolayer, read-out: CtAmp (%DD)
[8] = MM monolayer, read-out: CtD50 (%DD)
[9] = FM monolayer, read-out: APD30 (%DD)
[10] = FM monolayer, read-out: APD90 (%DD)
[11] = FM monolayer, read-out: CL (%DD)
[12] = FM monolayer, read-out: Trise (%DD)
[13] = MM monolayer, read-out: APD30 (%DD)
[14] = MM monolayer, read-out: APD90 (%DD)
[15] = MM monolayer, read-out: CL (%DD)
[16] = MM monolayer, read-out: Trise (%DD)
[17] = read-out: APD30 (%DD), FM monolayer
[18] = read-out: APD90 (%DD), FM monolayer
[19] = read-out: CL (%DD), FM monolayer

For `C[C@@H]1CC(=O)NN=C1c1ccc(NN=C(C#N)C#N)cc1` [Levosimendan], the “Free Cmax” value [1] is listed as 100 nM, the “effects on contractile activity” value [2, 4] is listed as “no physiologically significant effects” and the activity at 0.1 µM [2, 5] is listed as 125 ± 20.8%. It also gave an activity at 0.1 µM [2, 6] of 94 ± 3.2%, an activity at 0.3 µM [2, 5] of 94 ± 9.6% and an activity at 0.3 µM [2, 6] of 100 ± 2.4%. For the same compound, the activity at 1 µM [2, 5] was 155 ± 32.5%, the activity at 1 µM [2, 6] was 102 ± 2.7% and the activity at 3 µM [2, 5] was 122 ± 26.6%. It also gave an activity at 3 µM [2, 6] of 101 ± 1.8%, an activity at 0.1 µM [2, 7] of 120 ± 12.4% and an activity at 0.1 µM [2, 8] of 104 ± 2%. For the same compound, the activity at 0.3 µM [2, 7] was 95 ± 8.1%, the activity at 0.3 µM [2, 8] was 102 ± 1.3% and the activity at 1 µM [2, 7] was 199 ± 27.2%. For the same compound, the activity at 1 µM [2, 8] was 104 ± 2%, the activity at 3 µM [2, 7] was 167 ± 33.5% and the activity at 3 µM [2, 8] was 103 ± 2.3%. The “increasing the amplitude of contraction (positive inotropy)” value [2] was “ineffective”, the “contractile amplitude at higher concentrations (in words)” value ([2]; higher concentrations, FM and MM, not statistically significant) was “increased” and the “change in amplitude of contraction at higher concentrations” value ([2]; higher concentrations, both groups, failed to reach significance) was less than 20%. The “effects on electrical activity” value [3, 4] was “no physiologically significant effects”, the activity at 0.1 µM [3, 9] was 102 ± 2.2% and the activity at 0.1 µM [3, 10] was 96 ± 1.7%. It also gave an activity at 0.1 µM [3, 11] of 95 ± 1.4%, an activity at 0.1 µM [3, 12] of 97 ± 22.3% and an activity at 0.3 µM [3, 9] of 101 ± 2.9%. It also gave an activity at 0.3 µM [3, 10] of 94 ± 1.1%, an activity at 0.3 µM [3, 11] of 93 ± 1.1% and an activity at 0.3 µM [3, 12] of 80 ± 13.5%. It also gave an activity at 1 µM [3, 9] of 94 ± 3%, an activity at 1 µM [3, 10] of 93 ± 0.6% and an activity at 1 µM [3, 11] of 93 ± 1.6%. The activity at 1 µM [3, 12] was 65 ± 9.5%, the activity at 3 µM [3, 9] was 99 ± 3.9% and the activity at 3 µM [3, 10] was 94 ± 1%. For the same compound, the activity at 3 µM [3, 11] was 97 ± 1.2%, the activity at 3 µM [3, 12] was 101 ± 24.9% and the activity at 0.1 µM [3, 13] was 97 ± 1.4%. For the same compound, the activity at 0.1 µM [3, 14] was 96 ± 1.2%, the activity at 0.1 µM [3, 15] was 99 ± 0.8% and the activity at 0.1 µM [3, 16] was 107 ± 17.8%. For the same compound, the activity at 0.3 µM [3, 13] was 100 ± 2.2%, the activity at 0.3 µM [3, 14] was 100 ± 1% and the activity at 0.3 µM [3, 15] was 97 ± 0.7%. For the same compound, the activity at 0.3 µM [3, 16] was 121 ± 16.3%, the activity at 1 µM [3, 13] was 95 ± 1.7% and the activity at 1 µM [3, 14] was 98 ± 0.9%. It also gave an activity at 1 µM [3, 15] of 97 ± 0.7%, an activity at 1 µM [3, 16] of 96 ± 7.8% and an activity at 3 µM [3, 13] of 93 ± 1.9%. For the same compound, the activity at 3 µM [3, 14] was 98 ± 0.9%, the activity at 3 µM [3, 15] was 98 ± 0.5% and the activity at 3 µM [3, 16] was 114 ± 10.2%.
In the case of `C[C@H]1O[C@@H](O[C@H]2[C@@H](O)C[C@H](O[C@H]3[C@@H](O)C[C@H](O[C@H]4CC[C@@]5(C)[C@H](CC[C@@H]6[C@@H]5C[C@@H](O)[C@]5(C)[C@@H](C7=CC(=O)OC7)CC[C@]65O)C4)O[C@@H]3C)O[C@@H]2C)C[C@H](O)[C@@H]1O` [Digoxin], the “Free Cmax” value [1] is given as 2 nM, the activity at 0.1 µM [2, 5] is given as 88 ± 6.1% and the activity at 0.1 µM [2, 6] is given as 90 ± 1.3%. For the same compound, the activity at 0.3 µM [2, 5] was 18 ± 11.1%, the activity at 0.3 µM [2, 6] was 51 ± 15.9% and the activity at 0.1 µM [2, 7] was 127 ± 26.2%. For the same compound, the activity at 0.1 µM [2, 8] was 97 ± 2%, the activity at 0.3 µM [2, 7] was 12 ± 3.3% and the activity at 0.3 µM [2, 8] was 43 ± 1.8%. The activity at 1 µM [2, 7] was 13 ± 5.3%, the activity at 1 µM [2, 8] was 40 ± 3.6% and the activity at 3 µM [2, 7] was 7 ± 1.9%. The activity at 3 µM [2, 8] was 43 ± 3.4%, the “increasing the amplitude of contraction (positive inotropy)” value [2] was “ineffective” and the activity at 0.1 µM [3, 12] was 100 ± 21.3%. It also gave an activity at 0.1 µM [3, 13] of 91 ± 1.2%, an activity at 0.1 µM [3, 14] of 101 ± 1.3% and an activity at 0.1 µM [3, 15] of 102 ± 0.4%. It also gave an activity at 0.1 µM [3, 16] of 127 ± 10.8%, an activity at 0.3 µM [3, 13] of 68 ± 2.5% and an activity at 0.3 µM [3, 14] of 89 ± 1%. The activity at 0.3 µM [3, 15] was 100 ± 0.8%, the activity at 0.3 µM [3, 16] was 161 ± 38.2% and the activity at 0.1 µM [3, 17] was 84 ± 1.8%. The activity at 0.3 µM [3, 17] was 65 ± 2.8%, the activity at 0.1 µM [3, 18] was 95 ± 0.6% and the activity at 0.3 µM [3, 18] was 88 ± 2.1%. For the same compound, the activity at 0.1 µM [3, 19] was 98 ± 0.7%, the activity at 0.3 µM [3, 19] was 98 ± 0.9% and the activity at 0.3 µM ([3]; read-out: Trise (%DD), FM monolayer) was 74 ± 9.2%. The “effect on APD (in words)” value ([3]; both groups) was “decreased” and the “electrical activity of the monolayers at higher concentrations” value ([3]; higher concentrations, FM and MM) was “electrical quiescence”.
